≈ marks a conversion by molar mass, not a printed value. Calls of active or inactive are those of the source. The calls are words filed in the database; no cut-off is given here.
Experiments:
Chlamydia trachomatis [1] = assay: Inhibition of recombinant Chlamydia trachomatis ClpX ATPase activity assessed as reduction in ATP consumption at 25 ug/ml incubated for 60 mins by Kinase Glo assay relative to control; conditions: dose 25.0 µg/ml
Chlamydia trachomatis [2] = assay: Antibacterial activity against Chlamydia trachomatis serovar L2 infected in HEp-2 cells assessed as bacterial growth inhibition at 25 to 0.39 ug/ml incubated for 16 hrs by IFA assay; format: functional, organism-based; conditions: dose 25-0.39 µg/ml
Chlamydia trachomatis [3] = assay: Antibacterial activity against Chlamydia trachomatis serovar L2 infected in HEp-2 cells assessed as bacterial growth inhibition incubated for 16 hrs by IFA assay; format: functional, organism-based; conditions: serovar L2, HEp-2, 16 h
Salmonella typhimurium [4] = assay: Mutagenicity in Salmonella typhimurium TA98 assessed as number of revertants per plate at 10 ug pretreated for 90 mins measured after 66 hrs by AMES test (reference value: 25.67 +/- 5.51); format: functional, Salmonella enterica subsp. enterica serovar Typhimurium; conditions: dose 10 µg; time 67.5 hrs
HEp-2 = assay: Cytotoxicity against HEp-2 cells assessed as cell viability at 25 ug/ml incubated for 20 hrs by XTT assay relative to control; format: toxicity, cell-based; conditions: human, hep-2, 20 h, at 25 µg/mL
[5] = Cytotoxicity against HEC-1-A cells assessed as cell survival at 256 ug/ml incubated for 20 hrs by XTT assay relative to control; format: toxicity, cell-based; conditions: human, at 256 µg/mL, read-out: Survival
[6] = Cytotoxicity against HEK293 cells assessed as cell survival at 256 ug/ml incubated for 20 hrs by XTT assay relative to control; format: toxicity, cell-based; conditions: human, at 256 µg/mL, read-out: Survival
Chlamydia trachomatis [7] = assay: Antibacterial activity against Chlamydia trachomatis L2 infected in HEp-2 cells assessed as inhibition of infectious progeny incubated for 24 hrs by fluorescence microscopy; format: functional, organism-based; conditions: L2, HEp-2, 24 h
[8] = Cytotoxicity against HEp-2 cells assessed as cell viability at 256 ug/ml incubated for 20 hrs by XTT assay relative to control; format: toxicity, cell-based; conditions: human, at 256 µg/mL, read-out: Activity
Candida tropicalis = assay: Antimicrobial activity against Candida tropicalis 750 assessed as microbial growth inhibition by broth microdilution method; format: functional
Pichia kudriavzevii = assay: Antimicrobial activity against Pichia kudriavzevii 6558 assessed as microbial growth inhibition by broth microdilution method; format: functional
Nakaseomyces glabratus = assay: Antimicrobial activity against Candida glabrata 2001 assessed as microbial growth inhibition by broth microdilution method; format: functional
Salmonella typhimurium [9] = assay: Mutagenicity in Salmonella typhimurium TA98 assessed as number of revertants per plate at 2.5 ug pretreated for 90 mins measured after 66 hrs in presence of S9 fraction by AMES test (reference value: 24.33 +/- 9.50); format: functional, Salmonella enterica subsp. enterica serovar Typhimurium; conditions: dose 2.5 µg; time 67.5 hrs
Salmonella typhimurium [10] = assay: Mutagenicity in Salmonella typhimurium TA100 assessed as number of revertants per plate at 2.5 ug pretreated for 90 mins measured after 66 hrs in presence of S9 by AMES test (reference value: 201 +/- 9.90); format: functional, Salmonella enterica subsp. enterica serovar Typhimurium; conditions: dose 2.5 µg; time 67.5 hrs
[11] = Cytotoxicity against HEK293 cells assessed as cell viability at 25 ug/ml incubated for 20 hrs by XTT assay relative to control; format: toxicity, cell-based; conditions: human, at 25 µg/mL, read-out: Activity
Escherichia coli [12] = assay: Antimicrobial activity against Escherichia coli K12 assessed as microbial growth inhibition incubated for 24 hrs by TTC staining based assay; format: functional
Acinetobacter baumannii = assay: Antimicrobial activity against Acinetobacter baumannii 2208 assessed as microbial growth inhibition incubated for 24 hrs by TTC staining based assay; format: functional
Escherichia coli [13] = assay: Antimicrobial activity against non-pathogenic Escherichia coli ATCC MG1655 assessed as microbial growth inhibition incubated for 24 hrs by TTC staining based assay; format: functional
Pseudomonas aeruginosa = assay: Antimicrobial activity against Pseudomonas aeruginosa PA01 assessed as microbial growth inhibition incubated for 24 hrs by TTC staining based assay; format: functional
[14] = test system: Lactiplantibacillus plantarum; assay: Antimicrobial activity against Lactobacillus plantarum DSM 20174 assessed as microbial growth inhibition incubated for 24 hrs; format: functional
[15] = test system: Bacteroides thetaiotaomicron; assay: Antimicrobial activity against Bacteroides thetaiotaomicron DSM 2079 assessed as microbial growth inhibition incubated for 48 hrs; format: functional
Anaerostipes caccae = assay: Antimicrobial activity against Anaerostipes caccae […] assessed as microbial growth inhibition incubated for 48 hrs; format: functional
Staphylococcus aureus = assay: Antimicrobial activity against Staphylococcus aureus USA 300 JE2 assessed as microbial growth inhibition incubated for 24 hrs by TTC staining based assay; format: functional
Blautia producta = assay: Antimicrobial activity against Blautia producta DSM 2950 assessed as microbial growth inhibition incubated for 48 hrs; format: functional
Thomasclavelia ramosa = assay: Antimicrobial activity against Clostridium ramosum DSM 1402 assessed as microbial growth inhibition incubated for 48 hrs; format: functional
[16] = test system: Lacticaseibacillus rhamnosus; assay: Antimicrobial activity against Lactobacillus rhamnosus CGMCC 1.3724 assessed as microbial growth inhibition incubated for 24 hrs by TTC staining based assay; format: functional

Row | SMILES | IC50 (Chlamydia trachomatis [3]; read-out: IC50) | IC50 (Chlamydia trachomatis [3]; read-out: pIC50 (converted)) [µM] | further results
1 | N#Cc1ccc(C2SCCNC3=C2C(=O)c2ccccc23)cc1 (stereo not given) |  |  | inhibition (Chlamydia trachomatis [1]): 20%; inhibition (Chlamydia trachomatis [2]): inactive
2 | COc1ccc(C2Sc3ccccc3N=C3C2=C(O)c2ccccc23)cc1 (stereo not given) | 14.7 µg/mL |  | 
3 | Nc1ccc([N+](=O)[O-])cc1N |  |  | Activity (Salmonella typhimurium [4]): 34.5
4 | COc1ccc(C2Nc3ccccc3NC3=C2C(=O)c2ccccc23)cc1 (stereo not given) | 22.6 µg/mL | 53.7 | 
5 | O=C1C2=C(Nc3ccccc3SC2c2cccc([N+](=O)[O-])c2)c2ccccc21 (stereo not given) | 6.35 µg/mL |  | 
6 | O=C1C2=C(Nc3ccccc3SC2c2ccc(Cl)cc2Cl)c2ccccc21 (stereo not given) | 6.37 µg/mL | 15.5 | 
7 | Nc1ccc(C2Sc3ccccc3NC3=C2C(=O)c2ccccc23)cc1 (stereo not given) | 17.6 µg/mL | 49 | 
8 | O=C1C2=C(Nc3ccccc3SC2c2ccc(Cl)cc2)c2ccccc21 (stereo not given) | 6.59 µg/mL | 17.4 | 
9 | O=C1C2=C(Nc3ccccc3SC2c2ccc(OC(F)(F)F)cc2)c2ccccc21 (stereo not given) | 7.44 µg/mL | 17.4 | 
10 | COc1ccccc1C1Sc2ccccc2NC2=C1C(=O)c1ccccc12 (stereo not given) | 3.32 µg/mL | 8.91 | Activity (HEp-2): 73%; viability at 20 h, 256 ug/ml [5]: ≥ 75%; viability at 20 h, 256 ug/ml [6]: ≥ 75%; IC50 (Chlamydia trachomatis [7]): 6.41 µg/mL (≈ 17.3 µM); viability at 20 h, 256 ug/ml [8]: 50%
11 | O=C1C2=C(Nc3ccccc3SC2c2cccc(C(F)(F)F)c2)c2ccccc21 (stereo not given) | 5.18 µg/mL |  | 
12 | N#Cc1ccc(C2Sc3ccccc3NC3=C2C(=O)c2ccccc23)cc1 (stereo not given) | 10.2 µg/mL |  | 
13 | O=C1C2=C(Nc3ccccc3SC2c2cccs2)c2ccccc21 (stereo not given) | 7.36 µg/mL |  | 
14 | COc1ccc(C2SCCNC3=C2C(=O)c2ccccc23)cc1 (stereo not given) | 16.1 µg/mL |  | 
15 | O=C1C2=C(Nc3ccccc3SC2c2ccc(OCc3ccccc3)cc2)c2ccccc21 (stereo not given) | 22.8 µg/mL | 51.3 | 
16 | O=C1C2=C(Nc3cc(C(F)(F)F)ccc3SC2c2ccc(Br)cc2)c2ccccc21 (stereo not given) | 6.93 µg/mL |  | 
17 | O=C(O)c1ccc(C2Sc3ccccc3NC3=C2C(=O)c2ccccc23)cc1 (stereo not given) |  |  | inhibition (Chlamydia trachomatis [2]): inactive
18 | COc1ccc(C2Sc3ccc(C(F)(F)F)cc3NC3=C2C(=O)c2ccccc23)cc1 (stereo not given) | 12.3 µg/mL | 28.2 | 
19 | O=C1C2=C(Nc3cc(C(F)(F)F)ccc3SC2c2cccs2)c2ccccc21 (stereo not given) | 6.53 µg/mL |  | 
20 | COc1cccc(C2C3=C(Nc4ccccc4S2(=O)=O)c2ccccc2C3=O)c1 (stereo not given) | 10 µg/mL |  | 

Row | SMILES | IC50 (Chlamydia trachomatis [3]; read-out: IC50) | IC50 (Chlamydia trachomatis [3]; read-out: pIC50 (converted)) [µM] | further results
21 | Cc1ccc(C2SCCNC3=C2C(=O)c2ccccc23)cc1 (stereo not given) | 21.4 µg/mL | 69.2 | 
22 | O=C1C2=C(Nc3ccccc3SC2c2ccc(-c3ccccc3)cc2)c2ccccc21 (stereo not given) |  |  | inhibition (Chlamydia trachomatis [2]): inactive
23 | COc1ccccc1C1Sc2ccc(C(F)(F)F)cc2NC2=C1C(=O)c1ccccc12 (stereo not given) | 2.46 µM | 2.51 | viability at 20 h, 256 ug/ml [8]: 100%
24 | OC(Cn1cncn1)(Cn1cncn1)c1ccc(F)cc1F [FLUCONAZOLE] |  |  | MIC (Candida tropicalis): 0.5 µg/mL (≈ 1.63 µM); MIC (Pichia kudriavzevii): 16 µg/mL (≈ 52.2 µM); MIC (Nakaseomyces glabratus): 2 µg/mL (≈ 6.53 µM)
25 | N#Cc1ccccc1C1Sc2ccc(C(F)(F)F)cc2NC2=C1C(=O)c1ccccc12 (stereo not given) | 1.61 µM | 1.62 | viability at 20 h, 256 ug/ml [8]: 100%
26 | Cc1ccc(C2Sc3ccccc3NC3=C2C(=O)c2ccccc23)cc1 (stereo not given) | 6.72 µg/mL |  | 
27 | Cc1ccc(C2Nc3ccccc3NC3=C2C(=O)c2ccccc23)cc1 (stereo not given) | 15 µg/mL |  | 
28 | Nc1ccc2cc3ccccc3cc2c1 [2-AMINOANTHRACENE] |  |  | Activity (Salmonella typhimurium [9]): 137; Activity (Salmonella typhimurium [10]): 1256
29 | N#Cc1ccc(C2Nc3ccccc3NC3=C2C(=O)c2ccccc23)cc1 (stereo not given) | 20.9 µg/mL |  | 
30 | Cc1cccc(C2Sc3ccccc3NC3=C2C(=O)c2ccccc23)c1F (stereo not given) | 4.69 µg/mL | 12.6 | inhibition (Chlamydia trachomatis [1]): 20%; viability at 20 h, 256 ug/ml [5]: ≥ 75%; viability at 20 h, 256 ug/ml [6]: ≥ 75%; IC50 (Chlamydia trachomatis [7]): 7.13 µg/mL (≈ 19.1 µM); viability at 20 h, 256 ug/ml [8]: 50%; viability at 20 h, 25 ug/ml [11]: 78%
31 | N#Cc1cccc(C2Sc3ccccc3NC3=C2C(=O)c2ccccc23)c1 (stereo not given) | 9 µg/mL |  | 
32 | O=C1C2=C(Nc3ccccc3SC2c2cccc(Cl)c2)c2ccccc21 (stereo not given) | 4.79 µg/mL | 12.9 | 
33 | O=C1C2=C(Nc3ccccc3SC2c2ccc(O)cc2)c2ccccc21 (stereo not given) | 14.4 µg/mL | 39.8 | 
34 | Cc1ccccc1C1Sc2ccccc2NC2=C1C(=O)c1ccccc12 (stereo not given) | 7.82 µM | 7.94 | 
35 | CC[C@H]1OC(=O)[C@H](C)[C@@H](O[C@H]2C[C@@](C)(OC)[C@@H](O)[C@H](C)O2)[C@H](C)[C@@H](O[C@@H]2O[C@H](C)C[C@H](N(C)C)[C@H]2O)[C@](C)(O)C[C@@H](C)CN(C)[C@H](C)[C@@H](O)[C@]1(C)O [AZITHROMYCIN] |  |  | MIC (Escherichia coli [12]): < 1 µg/mL; MIC (Acinetobacter baumannii): < 1 µg/mL; MIC (Escherichia coli [13]): 2 µg/mL (≈ 2.67 µM); MIC (Pseudomonas aeruginosa): 125 µg/mL (≈ 167 µM); MIC [14]: 2 µg/mL (≈ 2.67 µM); MIC [15]: 0.5 µg/mL (≈ 0.668 µM); MIC (Anaerostipes caccae): > 125 µg/mL; MIC (Staphylococcus aureus): 2 µg/mL (≈ 2.67 µM); IC50 (Chlamydia trachomatis [7]): 0.06 µg/mL (≈ 0.0801 µM); MIC (Blautia producta): < 0.06 µg/mL; MIC (Thomasclavelia ramosa): < 0.06 µg/mL; MIC [16]: 1 µg/mL (≈ 1.34 µM)
36 | CC(=O)Oc1ccc(C2Sc3ccccc3NC3=C2C(=O)c2ccccc23)cc1 (stereo not given) | 7.18 µg/mL |  | 
37 | O=C1C2=C(Nc3ccccc3SC2c2ccc([N+](=O)[O-])cc2)c2ccccc21 (stereo not given) | 9.01 µg/mL |  | 
38 | O=C1C2=C(Nc3ccccc3SC2c2ccccc2C(=O)O)c2ccccc21 (stereo not given) |  |  | inhibition (Chlamydia trachomatis [1]): 20%; inhibition (Chlamydia trachomatis [2]): inactive
39 | O=C1C2=C(NCCSC2c2ccc(Br)cc2)c2ccccc21 (stereo not given) | 21.3 µg/mL |  | 
40 | O=C1C2=C(Nc3ccccc3SC2c2cccc(O)c2)c2ccccc21 (stereo not given) | 16.5 µg/mL | 45.7 | 

Source: ChEMBL document CHEMBL5380782, “Design, Biological Evaluation, and Computer-Aided Analysis of Dihydrothiazepines as Selective Antichlamydial Agents” (J Med Chem, 2023)
